According to publication PMC12396409, “Screening and hit evaluation of a microbial metabolite library against the pathogenic Plasmodium falciparum and Toxoplasma gondii parasites” (International Journal for Parasitology: Drugs and Drug …, 2025):
Structures can show the parent of a compound that is named as a salt. Where two headings read alike, the source gives them in different places.

Experiments:
[1] = test system: P. falciparum 3D7 parasites; experiment: P. falciparum growth inhibition assay, 2-cycle (120 h treatment), delayed-death screen and dose-response; type: cell-based, Plasmodium falciparum
[2] = test system: P. falciparum 3D7 parasites; experiment: P. falciparum growth inhibition assay, 1-cycle (72 h treatment), SYBR DNA staining (library screen at 2 μg/mL and dose-response); type: cell-based, Plasmodium falciparum
[3] = test system: T. gondii RH strain (RH-Tub-eYFP) tachyzoites; experiment: microbe, parasite or virus in culture; type: cell-based, Toxoplasma gondii; details: 72 h; for percent parasite growth at 2 µg/mL: Toxoplasma gondii
[4] = P. falciparum, 120 h, screen at 2 μg/mL, replicate 1
[5] = P. falciparum, 120 h, screen at 2 μg/mL, replicate 2
[6] = P. falciparum, 72 h, screen at 2 μg/mL, replicate 1
[7] = P. falciparum, 72 h, screen at 2 μg/mL, replicate 2
[8] = T. gondii, screen at 2 μg/mL, replicate 1
[9] = T. gondii, screen at 2 μg/mL, replicate 2
[10] = library screen at 2 μg/mL, % growth, replicate 1, read-out: Tg_72h_%Growth_Rep1
[11] = library screen at 2 μg/mL, % growth, replicate 2, read-out: Tg_72h_%Growth_Rep2
[12] = library screen at 2 μg/mL, 120 h, % growth, replicate 1
[13] = library screen at 2 μg/mL, 120 h, % growth, replicate 2
[14] = library screen at 2 μg/mL, 72 h, % growth, replicate 1
[15] = library screen at 2 μg/mL, 72 h, % growth, replicate 2
[16] = library screen at 2 μg/mL, % growth, replicate 1
[17] = library screen at 2 μg/mL, % growth, replicate 2

Question: `CC(=O)N[C@H]1[C@H](O[C@@H]2c3ccc(c(Cl)c3)Oc3cc4cc(c3O[C@@H]3O[C@H](CO)[C@@H](O)[C@H](O)[C@H]3NC(=O)CCCCCCCC(C)C)Oc3ccc(cc3Cl)C[C@H]3NC(=O)[C@H](N)c5ccc(O)c(c5)Oc5cc(O)cc(c5)[C@H](NC3=O)C(=O)N[C@H]4C(=O)N[C@H]3C(=O)N[C@@H]2C(=O)N[C@H](C(=O)O)c2cc(O)cc(O[C@H]4O[C@H](CO)[C@@H](O)[C@H](O)[C@@H]4O)c2-c2cc3ccc2O)O[C@H](CO)[C@@H](O)[C@@H]1O` [Teicoplanin A2-5] was tested. Which Pf_120h_%Growth_Rep1 [1, 4] did it give?
Answer: 86.61%

Question: And the Pf_120h_%Growth_Rep2 [1, 5]?
Answer: 122.81%

Question: What about the Pf_72h_%Growth_Rep1 [2, 6] of the same compound?
Answer: 86.27%

Question: And the Pf_72h_%Growth_Rep2 [2, 7]?
Answer: 115.48%

Question: And the Tg_72h_%Growth_Rep1 [3, 8]?
Answer: 105.42%

Question: What about the Tg_72h_%Growth_Rep2 [3, 9] of the same compound?
Answer: 91.45%

Question: With `CN[C@H](CC(C)C)C(=O)N[C@H]1C(=O)N[C@@H](CC(N)=O)C(=O)N[C@H]2C(=O)N[C@H]3C(=O)N[C@H](C(=O)N[C@H](C(=O)O)c4cc(O)cc(O)c4-c4cc3ccc4O)[C@H](O)c3ccc(c(Cl)c3)Oc3cc2cc(c3O[C@@H]2O[C@H](CO)[C@@H](O)[C@H](O)[C@H]2O[C@H]2C[C@](C)(N)[C@H](O)[C@H](C)O2)Oc2ccc(cc2Cl)[C@H]1O` [Vancomycin hydrochloride] as the compound, how does the activity at 2 µg/mL ([1]; Plasmodium falciparum, 3D7, 120 h, read-out: Pf_120h_%Growth_Rep1) read?
Answer: 110%

Question: What about the activity at 2 µg/mL ([1]; Plasmodium falciparum, 3D7, 120 h, read-out: Pf_120h_%Growth_Rep2) of the same compound?
Answer: 98.5%

Question: What about the activity at 2 µg/mL ([2]; Plasmodium falciparum, 3D7, 72 h, read-out: Pf_72h_%Growth_Rep1) of the same compound?
Answer: 88%

Question: And the activity at 2 µg/mL ([2]; Plasmodium falciparum, 3D7, 72 h, read-out: Pf_72h_%Growth_Rep2)?
Answer: 120%

Question: And the percent parasite growth at 2 µg/mL ([3]; read-out: Tg_72h_%Growth_Rep1)?
Answer: 108%

Question: And the percent parasite growth at 2 µg/mL ([3]; read-out: Tg_72h_%Growth_Rep2)?
Answer: 80.9%

Question: For `CC(=O)C1=C(O)C=C2Oc3c(C(N)=O)c(O)cc(O)c3[C@]2(C)C1=O` [Cercosporamide], which Pf_120h_%Growth_Rep1 [1, 4] is on record?
Answer: 127.36%

Question: What about the Pf_120h_%Growth_Rep2 [1, 5] of the same compound?
Answer: 89.41%

Question: And the Pf_72h_%Growth_Rep1 [2, 6]?
Answer: 93.73%

Question: And the Pf_72h_%Growth_Rep2 [2, 7]?
Answer: 83.00%

Question: What about the Tg_72h_%Growth_Rep1 [3, 8] of the same compound?
Answer: 84.28%

Question: What about the Tg_72h_%Growth_Rep2 [3, 9] of the same compound?
Answer: 89.90%

Question: Which results are given for `CC(=O)O[C@H]1C[C@]2(C)[C@H]3CC[C@]4(C)Oc5oc(C)cc(=O)c5C[C@H]4[C@]3(C)CC[C@H]2C(C)(C)[C@H]1OC(C)=O` [Sartorypyrone B]?
Answer: Pf_120h_%Growth_Rep1 ([1]; P. falciparum, 120 h, parasite screen 2 μg/mL, % growth, replicate 1): 68.83%; Pf_120h_%Growth_Rep2 ([1]; P. falciparum, 120 h, parasite screen 2 μg/mL, % growth, replicate 2): 125.68%; Pf_72h_%Growth_Rep1 ([2]; P. falciparum, 72 h, parasite screen 2 μg/mL, % growth, replicate 1): 77.80%; Pf_72h_%Growth_Rep2 ([2]; P. falciparum, 72 h, parasite screen 2 μg/mL, % growth, replicate 2): 111.47%; Tg_72h_%Growth_Rep1 ([3]; T. gondii, parasite screen 2 μg/mL, % growth, replicate 1): 114.72%; Tg_72h_%Growth_Rep2 ([3]; T. gondii, parasite screen 2 μg/mL, % growth, replicate 2): 87.54%

Question: What does the source list for `CS(=O)(=O)c1ccc([C@@H](O)[C@@H](CF)NC(=O)C(Cl)Cl)cc1` [Florfenicol, reference compound]?
Answer: 3) Fold change (72 h/120 h) [1]: 5.8; activity at 2 µg/mL ([1]; Plasmodium falciparum, 3D7, 120 h, P. falciparum, 2 μg/mL, 120 h; read-out: 2) Growth (%) at 120 h): 10.8%; activity at 2 µg/mL ([1]; Plasmodium falciparum, 3D7, 120 h, library screen at 2 μg/mL, 120 h, % growth, replicate 1, read-out: Pf_120h_%Growth_Rep1): 12.9%; activity at 2 µg/mL ([1]; Plasmodium falciparum, 3D7, 120 h, library screen at 2 μg/mL, 120 h, % growth, replicate 2, read-out: Pf_120h_%Growth_Rep2): 8.65%; activity at 2 µg/mL ([2]; Plasmodium falciparum, 3D7, 72 h, P. falciparum, 2 μg/mL, 72 h; read-out: 1) Growth (%) at 72 h): 62.4%; activity at 2 µg/mL ([2]; Plasmodium falciparum, 3D7, 72 h, library screen at 2 μg/mL, 72 h, % growth, replicate 1, read-out: Pf_72h_%Growth_Rep1): 69.7%; activity at 2 µg/mL ([2]; Plasmodium falciparum, 3D7, 72 h, library screen at 2 μg/mL, 72 h, % growth, replicate 2, read-out: Pf_72h_%Growth_Rep2): 55.2%; percent parasite growth at 2 µg/mL [3, 10]: 47.1%; percent parasite growth at 2 µg/mL [3, 11]: 48.9%

Question: With `C[C@@H](O)[C@H]1C(=O)N2C(C(=O)[O-])=C(SC3Cn4cnc[n+]4C3)[C@H](C)[C@H]12` (stereo partly drawn) [Biapenem] as the compound, how does the activity at 2 µg/mL ([1]; Plasmodium falciparum, 3D7, library screen at 2 μg/mL, 120 h, % growth, replicate 1, read-out: Pf_120h_%Growth_Rep1) read?
Answer: 85.6%

Question: What about the activity at 2 µg/mL ([1]; Plasmodium falciparum, 3D7, library screen at 2 μg/mL, 120 h, % growth, replicate 2, read-out: Pf_120h_%Growth_Rep2) of the same compound?
Answer: 79.2%

Question: What about the activity at 2 µg/mL ([2]; Plasmodium falciparum, 3D7, library screen at 2 μg/mL, 72 h, % growth, replicate 1, read-out: Pf_72h_%Growth_Rep1) of the same compound?
Answer: 84.2%

Question: What about the activity at 2 µg/mL ([2]; Plasmodium falciparum, 3D7, library screen at 2 μg/mL, 72 h, % growth, replicate 2, read-out: Pf_72h_%Growth_Rep2) of the same compound?
Answer: 84.8%

Question: And the percent parasite growth at 2 µg/mL [3, 10]?
Answer: 116%

Question: What about the percent parasite growth at 2 µg/mL [3, 11] of the same compound?
Answer: 95.1%

Question: `CCCCCC(=O)C(CCCC)c1oc(=O)c(CCCC)c(O)c1CCCC` (stereo not drawn) [Elasnin] was tested. Which Pf_120h_%Growth_Rep1 [1, 12] did it give?
Answer: 85.68%

Question: And the Pf_120h_%Growth_Rep2 [1, 13]?
Answer: 81.51%

Question: What about the Pf_72h_%Growth_Rep1 [2, 14] of the same compound?
Answer: 87.43%

Question: And the Pf_72h_%Growth_Rep2 [2, 15]?
Answer: 85.83%

Question: And the Tg_72h_%Growth_Rep1 [3, 16]?
Answer: 103.90%

Question: What about the Tg_72h_%Growth_Rep2 [3, 17] of the same compound?
Answer: 75.71%

Question: Which results are given for `CC1=C[C@H]2C(=O)O[C@H]3C[C@@H](C/C=C(/C)[C@@H](O)[C@@H](C)/C=C\C=C4CO[C@H]([C@@H]1O)[C@@]42O)O[C@@]1(C=C[C@H](C)[C@@H](C2CCCCC2)O1)C3` [Doramectin aglycone]?
Answer: Pf_120h_%Growth_Rep1 [1, 12]: 86.97%; Pf_120h_%Growth_Rep2 [1, 13]: 81.83%; Pf_72h_%Growth_Rep1 [2, 14]: 80.09%; Pf_72h_%Growth_Rep2 [2, 15]: 78.66%; Tg_72h_%Growth_Rep1 [3, 16]: 167.81%; Tg_72h_%Growth_Rep2 [3, 17]: 107.39%

Question: Which Pf_120h_%Growth_Rep1 [1, 4] does the source give for `O=C(O)c1nccc2c1[nH]c1ccccc12` [Carboline 1-carboxylic acid, β-] here?
Answer: 166.51%

Question: And the Pf_120h_%Growth_Rep2 [1, 5]?
Answer: 96.73%

Question: What about the Pf_72h_%Growth_Rep1 [2, 6] of the same compound?
Answer: 89.67%

Question: What about the Pf_72h_%Growth_Rep2 [2, 7] of the same compound?
Answer: 90.01%

Question: What about the Tg_72h_%Growth_Rep1 [3, 8] of the same compound?
Answer: 4.34%

Question: And the Tg_72h_%Growth_Rep2 [3, 9]?
Answer: 7.03%
